Experimental data from ChEMBL document CHEMBL4251544, “Identification of imidazo[1,2-b]pyridazine TYK2 pseudokinase ligands as potent and selective allosteric inhibitors of TYK2 signalling” (Medchemcomm, 2017).

Columns and labels:
Type in all cases: ADME, organism-based
[1] = Cmax in Balb/c mouse at 25 mg/kg, po; parameters: dose 25 mg/kg, route oral; conditions: in vivo
[2] = AUClast in Balb/c mouse at 3 mg/kg, iv; parameters: dose 3 mg/kg, route intravenous, time 0 - last; conditions: in vivo
[3] = AUClast in Balb/c mouse at 25 mg/kg, po; parameters: dose 25 mg/kg, route oral, time 0 - last; conditions: in vivo
[4] = Volume of distribution at steady state in Balb/c mouse at 3 mg/kg, iv; conditions: in vivo, read-out: Vdss
[5] = Oral bioavailability in Balb/c mouse at 25 mg/kg; conditions: in vivo

## CNc1cc(Nc2cc(F)cc(F)c2OC)nn2c(C(=O)NC[C@](C)(O)CO)cnc12
[1]
  Cmax: 2800 nM
[2]
  AUC(0-t): 2.3 µM·h
[3]
  AUC(0-t): 5.1 µM·h
[4]
  Vd: 6.3 L/kg
[5]
  bioavailability: 27%
